# Measurements from patent US8114895B2, “Use of bipyridine compound ‘Caerulomycin A’ derivatives and analogs thereof as immunosuppressive agents” (Council of Science and Industrial Research, priority 2005, dated 2012).
# Key:
# OVA-specific T cells = assay: Cytokine secretion by OVA-primed splenocytes (ELISA); format: cell-based, BALB/c mice; details: OVA 200 μg/ml, supernatants after 48 h
# Method: OVA (2 mg/ml) was dissolved in PBS (0.01 M, pH 7.2) and emulsified in Freund's complete adjuvant (FCA). Emulsion (100 μl) was then injected intraperitoneally in a group consisting of 5 BALB/c mice. The control group was injected with PBS alone. After seven days, mice were sacrificed and splenocytes were pooled and used for proliferation and cytokine assays. Splenocytes (5×10^5 cells/well) were cultured with OVA (200 μg/ml) in 200 μl RPMI/FCS-10% medium and with various concentrations of Caerulomycin A (0.0003-0.1 μg/ml). The control cultures consisting of splenocytes incubated with different concentrations of Caerulomycin A (no OVA), OVA and medium were also kept. The culture supernatants were collected after 48 h and cytokines were measured by ELISA.
# thymocytes = assay: Expression of CD69 on mouse thymocytes; format: cell-based, BALB/c mice; details: ConA 1 and 5 μg/ml, 24 h
# Method: The expression of CD69 was detected on the surface of thymocytes in the presence of Caerulomycin A. Thymocytes were obtained from 3-4 weeks old BALB/c mice. Thymocytes (4×10^6 cells/well) were stimulated with 1 μg/ml and 5 μg/ml of ConA for 24 h in the presence and absence of Caerulomycin A at 37° C. The cells were stained with PE labeled anti-mouse CD69 Ab. The stained cells were acquired on a FACScan as mentioned in the case of CD28/CTLA-4.
# [1] = tested on: calcium dependent pathway; assay: Proliferation by the calcium dependent (PMA+Lonomycin) pathway; format: cell-based; details: 48 h
# Method: Cells were seeded at 5×10^4 cells/well in flat-bottom 96-well plates. The various stimuli and Caerulomycin A were added at the initiation of the cultures. After 48 h, [^3H]-thymidine (1 μCi/well) was added, and its incorporation was measured 12 h later.
# naïve CD4^+ T cells = assay: Proliferation of naïve CD4+ T cells; format: cell-based
# Method: Examples establishing the role of Caerulomycin A [isolated from a novel species of Actinoalloteichus] in inducing immunosuppression based on the following: • Splenocytes of BALB/c mice were stimulated with either ConA (1 μg/ml and 2 μg/ml) or LPS (5 μg/ml and 10 μg/ml) and were cultured with different concentrations of Caerulomycin A (0.0003-0.1 μg/ml). After 48 h, the cultures were pulsed with 0.5 μCi of [^3H]-thymidine and harvested 14 h later by automatic cell harvester. Radioactivity incorporated was measured by liquid scintillation counting. • Antigen ovalbumin (100 μg/ml) emulsified in Freund's complete adjuvant was injected in a group consisting of 5 BALB/c mice. […] Radioactivity incorporated was measured by liquid scintillation. The culture supernatants were collected after 48 h and cytokines were measured by ELISA. • Immunosuppressive effect of different doses of Caerulomycin A was monitored on naïve CD4^+ T cells, antigen reactive CD4^+ T cells, Th2 clone and Th1 hybridoma. […] Radioactivity incorporated was measured by liquid scintillation. • Immunosuppressive effect of Caerulomycin A on MLR reaction. […] After 4 days, the cultures were pulsed with 1 μCi of [^3H]-thymidine and harvested 16 h later and radioactivity incorporated was measured by liquid scintillation counting. • In vivo immunosuppressive effect of Caerulomycin A on the proliferation of T cells. […]
compound,measurement,setting,value
"COc1cc(/C=N/O)nc(-c2ccccn2)c1 [Caerulomycin A, (E)-4-methoxy-2,2′-bipyridine-6-carbaldehyde oxime]",secretion of IFN-γ,OVA-specific T cells; Caerulomycin A 0.05-0.1 μg/ml,significantly suppressed the secretion
same,production of IL-10,OVA-specific T cells,failed to induce any change
same,expression of CD69,thymocytes,no change in the expression
same,proliferation of calcium dependent pathway,[1],significantly inhibited the proliferation
same,in vitro proliferation of naïve CD4+ T cells,naïve CD4^+ T cells,suppression
